Assay results reported in patent US10350281B2 (priority 2012, dated 2019).

Test system: E. coli, Streptococcus sp. and Proteus sp. isolated from the xenic culture
Test: Antibiotic susceptibility tests (antibiotic discs) with bacterial strains isolated from the xenic culture
Conditions: strains isolated from original xenic culture (E. coli, Streptococcus sp., Proteus sp.)

With `C[C@@H](O)[C@H]1C(=O)N2C(C(=O)O)=C(S[C@@H]3CN[C@H](C(=O)N(C)C)C3)[C@H](C)[C@H]12` [meropenem] the “susceptibility tests of the bacterial strains” value was “resistant to most antibiotics, except meropenem, neomycin and rifampicin”.
neomycin was tested, and the “susceptibility tests of the bacterial strains” value was “resistant to most antibiotics, except meropenem, neomycin and rifampicin”.
